Among the test systems are KM12 colon; U251 CNS; COLO 205 colon; NCI/ADR-RES ovarian; SNB-75 CNS; OVCAR-8 ovarian; UO-31 renal; MDA-MB-231 breast; MCF7 breast; A498 renal.
Holding throughout (experiment): inhibition of tumour cell growth, NCI panel, 48 h

SMILES strings stand for the structures.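 In this assay, cells in 96-well plates receive the compound at five concentrations for 48 hours. Endpoints are linearly interpolated between the surrounding concentrations. Definition used: TGI = concentration required for complete inhibition of growth.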

The record followed here is PubChem BioAssay (NCI).

For the compound `COc1ccc(OC)c2c(Nc3ccc(S(=O)(=O)O)c4cc(S(=O)(=O)O)cc(S(=O)(=O)O)c34)cc(C)nc12`, the TGI in the test with KM12 colon, in the test with U251 CNS, in the test with COLO 205 colon, in the test with NCI/ADR-RES ovarian, with SNB-75 CNS and in the test with OVCAR-8 ovarian was above 100 µM throughout. The TGI in the test on UO-31 renal, with MDA-MB-231 breast, with MCF7 breast and with A498 renal was above 100 µM throughout.

Take `O=C1CSC(c2cccc(Oc3ccccc3)c2)N1c1cc(Cl)ccc1Cl` (stereo unspecified): the TGI in the test with KM12 colon was 79.2 µM; in the test with U251 CNS it was 33.2 µM; in the test with COLO 205 colon it was 90.8 µM; in the test on NCI/ADR-RES ovarian it was 77.4 µM; in the test with SNB-75 CNS it was 62.6 µM; in the test on OVCAR-8 ovarian it was 62.5 µM. The TGI in the test on UO-31 renal worked out at 43.3 µM; in the test with MDA-MB-231 breast it was 43.3 µM; in the test on MCF7 breast, 23 µM; in the test with A498 renal, 70.7 µM.

In the case of `C(/Cc1ccc2c(c1)OCO2)=N\NC1=NCCCCN1`, the TGI with KM12 colon, in the test on U251 CNS, with COLO 205 colon, in the test on NCI/ADR-RES ovarian, in the test on SNB-75 CNS and with OVCAR-8 ovarian was above 100 µM each time. The TGI in the test with UO-31 renal was above 100 µM; in the test with MDA-MB-231 breast, above 100 µM; with MCF7 breast, above 100 µM; with A498 renal, 91.4 µM.

On to `O=C(NCc1ccc(Cl)c(Cl)c1)c1nc2ccccc2nc1NCc1ccc(Cl)c(Cl)c1`, for which the TGI in the test with KM12 colon, in the test on U251 CNS, in the test with COLO 205 colon, with NCI/ADR-RES ovarian, with SNB-75 CNS and in the test with OVCAR-8 ovarian was above 100 µM throughout. Moreover, the TGI in the test with UO-31 renal, in the test on MDA-MB-231 breast, in the test on MCF7 breast and with A498 renal was above 100 µM each time.

As to `CC(=O)OC/C=C/Cn1nc(Br)c(=O)[nH]c1=O`, the TGI with KM12 colon, with U251 CNS, with COLO 205 colon, in the test on NCI/ADR-RES ovarian, in the test with SNB-75 CNS and in the test on OVCAR-8 ovarian was above 100 µM in each case. In addition, the TGI in the test with UO-31 renal, in the test with MDA-MB-231 breast, in the test on MCF7 breast and in the test with A498 renal was above 100 µM each time.

With `C[C@@H](c1ccccc1)N(CC#N)[C@H]1CCC[C@]1(O)/C=C/c1ccc2c(c1)OCO2`, the TGI in the test on KM12 colon, with U251 CNS, with COLO 205 colon, in the test with NCI/ADR-RES ovarian, in the test with SNB-75 CNS and with OVCAR-8 ovarian was above 25 µM throughout. The TGI with UO-31 renal is above 25 µM; in the test with MDA-MB-231 breast, above 25 µM; with MCF7 breast, 11.5 µM; in the test on A498 renal, 6.98 µM.

As to `CCCCCNC(=O)OC1CCn2c1nc1c2C(=O)C(C)=C(N2CC2)C1=O` (stereo unspecified), the TGI stood at 3.48 µM with KM12 colon; 4.7 µM in the test with U251 CNS; 2.82 µM in the test on COLO 205 colon; 10.4 µM with NCI/ADR-RES ovarian; 2.69 µM with SNB-75 CNS; 5.31 µM in the test with OVCAR-8 ovarian. In addition, the TGI was determined as 3.87 µM with UO-31 renal, 5.31 µM in the test on MDA-MB-231 breast, 2.21 µM with MCF7 breast and 3.31 µM in the test on A498 renal.

`Cc1cc(NS(=O)(=O)c2ccc(NC(NC(=O)OC(C)C)(C(F)(F)F)C(F)(F)F)cc2)nc(C)n1`: the TGI in the test on KM12 colon, in the test on U251 CNS, in the test with COLO 205 colon, in the test with NCI/ADR-RES ovarian, in the test on SNB-75 CNS and in the test on OVCAR-8 ovarian was above 100 µM throughout. Besides, the TGI in the test on MDA-MB-231 breast, in the test with MCF7 breast and in the test with A498 renal was above 100 µM each time.

Take `N#Cc1c2c(c(Nc3ccc(Cl)cc3)n3c1nc1ccccc13)CCCC2`: the TGI was above 100 µM in the test with KM12 colon; above 65.4 µM in the test with U251 CNS; above 100 µM in the test on COLO 205 colon; above 100 µM in the test on NCI/ADR-RES ovarian; above 100 µM in the test on SNB-75 CNS; above 100 µM in the test on OVCAR-8 ovarian. Also, the TGI in the test with UO-31 renal, with MDA-MB-231 breast, with MCF7 breast and in the test with A498 renal was above 100 µM each time.

Take `CN1Cc2c(ccc3c2OCO3)[C@@H]2[C@H](O)Cc3cc4c(cc3[C@@H]21)OCO4`: the TGI in the test with KM12 colon is 12.4 µM; in the test on U251 CNS, above 25.1 µM; in the test with COLO 205 colon it was 4.55 µM; with NCI/ADR-RES ovarian it was above 100 µM; with SNB-75 CNS, 7.64 µM; in the test on OVCAR-8 ovarian, above 51.5 µM. Besides, the TGI was above 100 µM in the test on UO-31 renal, 24.6 µM with MDA-MB-231 breast, above 48.7 µM in the test on MCF7 breast and 6.07 µM in the test with A498 renal.

Regarding `O=C1c2sccc2C(=O)c2c(CO)csc21`, the TGI in the test with KM12 colon stood at 31.5 µM; in the test with U251 CNS it was 23.2 µM; in the test on COLO 205 colon, 12.2 µM; in the test on NCI/ADR-RES ovarian, 19.1 µM; in the test on SNB-75 CNS it was 15.1 µM; in the test with OVCAR-8 ovarian it was 12.4 µM. In addition, the TGI in the test with UO-31 renal stood at 26.2 µM; with MDA-MB-231 breast it was 50.1 µM; in the test on MCF7 breast it was 18.9 µM; with A498 renal it was 31.8 µM.

As to `COc1ccc(-c2cc(-c3ccc(Nc4ccnc5cc(C(F)(F)F)ccc45)cc3)nc(N)c2C#N)c2ccccc12`, the TGI in the test on KM12 colon, in the test with U251 CNS, in the test on COLO 205 colon, with NCI/ADR-RES ovarian, with SNB-75 CNS and in the test on UO-31 renal was above 100 µM each time. Besides, the TGI in the test with MDA-MB-231 breast, with MCF7 breast and in the test with A498 renal was above 100 µM each time.

In the case of `N#Cc1c(N)n(-c2nc3ccccc3s2)c(=O)c2cc([N+](=O)[O-])ccc12`, the TGI in the test with KM12 colon was above 51.3 µM; with U251 CNS, above 100 µM; in the test with NCI/ADR-RES ovarian it was 22.8 µM; in the test on SNB-75 CNS it was above 48.3 µM; with OVCAR-8 ovarian, 43.9 µM; with UO-31 renal it was above 79.2 µM. Further, the TGI in the test with MDA-MB-231 breast worked out at 50.5 µM; with MCF7 breast, 41.3 µM; in the test with A498 renal, 98.1 µM.

Turning to `Nc1nc(Nc2cc(F)c(Cl)c(F)c2)cc(=O)[nH]1`, the TGI is above 100 µM with KM12 colon; above 100 µM in the test with U251 CNS; above 100 µM in the test on COLO 205 colon; above 100 µM in the test on NCI/ADR-RES ovarian; 97.9 µM in the test on SNB-75 CNS; above 100 µM in the test on OVCAR-8 ovarian. Besides, the TGI in the test with MDA-MB-231 breast, with MCF7 breast and with A498 renal was above 100 µM throughout.
